melting point [°C]	SMILES
217 to 218	Cc1cc2cc(C3=CCN(C(=O)CN4[C@H](C)CN(c5ccc(C(F)(F)F)nc5)C[C@@H]4C)CC3)ccc2s1 [Compound 39, 2-[(2S,6R)-2,6-dimethyl-4-(6-trifluoromethylpyridin-3-yl)piperazin-1-yl]-1-[4-(2-methylbenzo[b]thiophen-5-yl)-3,6-dihydro-2H-pyridin-1-yl]ethanone]
191 to 192	Cc1cc2cc(C3=CCN(C(=O)CN4[C@H](C)CN(c5cncnc5)C[C@@H]4C)CC3)ccc2s1 [Compound 40, 2-((2S,6R)-2,6-dimethyl-4-pyrimidin-5-ylpiperazin-1-yl)-1-[4-(2-methylbenzo[b]thiophen-5-yl)-3,6-dihydro-2H-pyridin-1-yl]ethanone]
218 to 220	C[C@@H]1CN(c2cncnc2)C[C@H](C)N1CC(=O)N1CC=C(c2ccc3sccc3c2)CC1 [Compound 41, 1-(4-benzo[b]thiophen-5-yl-3,6-dihydro-2H-pyridin-1-yl)-2-((2S,6R)-2,6-dimethyl-4-pyrimidin-5-ylpiperazin-1-yl)ethanone]
169 to 170	O=C(CN1CCN(c2ccc(C(F)(F)F)cn2)C(=O)C1)N1CC=C(c2ccc3sccc3c2)CC1 [Compound 43, 4-[2-(4-benzo[b]thiophen-5-yl-3,6-dihydro-2H-pyridin-1-yl)-2-oxoethyl]-1-(5-trifluoromethylpyridin-2-yl)piperazin-2-one]
200 to 201	C[C@@H]1CN(c2ccc(C(F)(F)F)nc2)C[C@H](C)N1CC(=O)N1CC=C(c2ccc3c(c2)OCCO3)CC1 [Compound 45, 1-[4-(2,3-dihydrobenzo[1,4]dioxin-6-yl)-3,6-dihydro-2H-pyridin-1-yl]-2-[(2S,6R)-2,6-dimethyl-4-(6-trifluoromethylpyridin-3-yl)piperazin-1-yl]ethanone]
170 to 171	O=C(CN1CCN(c2ccc(C(F)(F)F)cn2)CC1)N1CC=C(c2ccc3sccc3c2)CC1 [Compound 46, 1-(4-benzo[b]thiophen-5-yl-3,6-dihydro-2H-pyridin-1-yl)-2-[4-(5-trifluoromethylpyridin-2-yl)piperazin-1-yl)ethanone]
136 to 137	C[C@@H]1CN(c2ccc(C(F)(F)F)nc2)C[C@H](C)N1CC(=O)N1CC=C(c2ccc3sccc3c2)CC1 [Compound 47, 1-(4-benzo[b]thiophen-5-yl-3,6-dihydro-2H-pyridin-1-yl)-2-[(2S,6R)-2,6-dimethyl-4-(6-trifluoromethylpyridin-3-yl)piperazin-1-yl)ethanone]
161 to 162	O=C(CN1CCN(c2ccc(C(F)(F)F)cn2)C(=O)C1)N1CC=C(c2ccc3c(c2)OCCO3)CC1 [Compound 49, 4-{2-[4-(2,3-dihydrobenzo[1,4]dioxin-6-yl)-3,6-dihydro-2H-pyridin-1-yl]-2-oxoethyl}-1-(5-trifluoromethylpyridin-2-yl)piperazin-2-one]
120 to 121	O=C(CN1CCN(c2ccc(C(F)(F)F)cn2)CC1)N1CC=C(c2cccc3ccsc23)CC1 [Compound 50, 1-(4-benzo[b]thiophen-7-yl-3,6-dihydro-2H-pyridin-1-yl)-2-[4-(5-trifluoromethylpyridin-2-yl)piperazin-1-yl]ethanone]
130 to 132	COC(=O)c1ccc(N2C[C@@H](C)N(CC(=O)N3CC=C(c4ccc5sccc5c4)CC3)[C@@H](C)C2)nc1 [Compound 52, Methyl 6-{(3S,5R)-4-[2-(4-benzo[b]thiophen-5-yl-3,6-dihydro-2H-pyridin-1-yl)-2-oxoethyl]-3,5-dimethylpiperazin-1-yl}nicotinate]
195 to 196	C[C@@H]1CN(c2cncnc2)C[C@H](C)N1CC(=O)N1CC=C(c2cccc3ccsc23)CC1 [Compound 55, 1-(4-benzo[b]thiophen-7-yl-3,6-dihydro-2H-pyridin-1-yl)-2-((2S,6R)-2,6-dimethyl-4-pyrimidin-5-ylpiperazin-1-yl)ethanone]

Source: patent US8518947B2, “(Heterocycle/tetrahydropyridine)-(piperazinyl)-1-alcanone and (heterocycle/dihydropyrrolidine)-(piperazinyl)-1-alcanone derivatives, and use thereof as p75 inhibitors” (Sanofi, priority 2009, dated 2013)
